This passage reports IC50 and EC50 results from patent US7393846B2, “Heterocyclic compounds useful for the treatment of inflammatory and allergic disorders” (Glenmark Pharmaceuticals, S.A., priority 2003, dated 2008).

Counter-ions that a name gives are not always drawn. Like-named read-outs stand apart in the source and are kept apart here.

The target in one experiment is PDE4 enzyme. Kind of experiment: Inhibition of Phosphodiesterase Enzymes (PDE4), [3H]cAMP hydrolysis assay. The experiment is classed as biochemical. To be noted: PDE4 inhibition, 1 μM cAMP, 34° C., 20 minutes. The method, then: Inhibition of Phosphodiesterase Enzymes (PDE4)
In this assay, PDE4 enzyme converts [^3H] cAMP to the corresponding [^3H] 5′-AMP in proportion to the amount of PDE4 present. The [^3H] 5′-AMP then was quantitatively converted to free [^3H] adenosine and phosphate by the action of snake venom 5′-nucleotidase.
The assay was performed with modification of the method of Thompson and Appleman (Biochemistry; 1971; 10; 311-316) and Schwartz and Passoneau (Proc. Natl. Acad. Sci. U.S.A. 1974; 71; 3844-3848), both references incorporated herein by reference in their entirety, at 34° C. In a 200 ul total reaction mixture, the reaction mixture contained 12.5 mM of Tris, 5 mM MgCl2, 1 μM cAMP (cold) and ^3H cAMP (0.1 uCi), (Amersham). […] Drug samples were then added in the reaction mixture (25 μt/tube). The assay was initiated by addition of enzyme mix (75 μl) and the mixture was incubated for 20 minutes at 34° C. The reaction was stopped by boiling the tubes for 2 mins at 100° C. in a water bath. After cooling on ice for 5 minutes and addition of 50 ug/reaction of 5′-nucleotidase snake venom from Crotalus atrox incubation was carried out again for 20 min. at 34° C. The unreacted substrate was separated from (^3H) Adenosine by addition of Dowex AG 1-X8 (Biorad Lab), (400 ul) which was prequilibrated (1:1:1) in water and ethanol. Reaction mixture was then thoroughly mixed, placed on ice for 15 minutes, vortexed and centrifuged at 14,000 r.p.m. for 2 mins. After centrifugation, a sample of the supernatant was taken and added in 24 well optiplates containing Scintillant (1 ml) and mixed well. The samples in the plates were then determined for radioactivity in a Top Counter and the PDE4 activity was estimated. PDE4 enzyme was present in quantities that yield <30% total hydrolysis of substrate (linear assay conditions).
Results were expressed as percent inhibition (IC50) in nM concentrations. The IC50 values were determined from the concentration curves by nonlinear regression analysis.

Another experiment has as its system PDE4. As to the kind of experiment: EC50 of the PDE4 results table (method not given).

`COc1ccc(C(=O)Nc2c(Cl)cncc2Cl)c2c1oc1ccc(NS(C)(=O)=O)cc12` [Example 01, N-(3,5-dichloropyrid-4-yl)-4-methoxy-8-methanesulfonamido-dibenzo[b,d]furan-1-carboxamide]: on PDE4 enzyme, the IC50 is 0.506 nM. In addition, the EC50 with PDE4 was determined as 8.57 nM.
Regarding `COc1ccc(C(=O)Nc2c(Cl)cncc2Cl)c2c1oc1ccc(NS(=O)(=O)N(C)C)cc12` [Example 02, N-(3,5-dichloropyrid-4-yl)-4-methoxy-8-(N,N-dimethylsulphonamido)-dibenzo[b,d]furan-1-carboxamide], inhibition on PDE4 enzyme was half-maximal at 1.03 nM (IC50). In the experiment on PDE4, this compound showed an EC50 of 2.07 nM.
On PDE4 enzyme, `CCS(=O)(=O)Nc1ccc2oc3c(OC)ccc(C(=O)Nc4c(Cl)cncc4Cl)c3c2c1` [Example 03, N-(3,5-dichloropyrid-4-yl)-4-methoxy-8-(ethanesulphonamido)-dibenzo[b,d]furan-1-carboxamide] came in with a half-maximal inhibitory concentration (IC50) of 0.762 nM. In the experiment on PDE4, this compound registered an EC50 of 7.39 nM.
For `CCOC(=O)C(=O)Nc1ccc2oc3c(OC)ccc(C(=O)Nc4c(Cl)cncc4Cl)c3c2c1` [Example 08, N-(3,5-dichloropyrid-4-yl)-4-methoxy-8-ethoxycarbonylcarboxamido-dibenzo[b,d]furan-1-carboxamide], in that order: 4.68 nM and 110 nM.
For `COc1ccc(C(=O)Nc2c(Cl)cncc2Cl)c2c1oc1ccc(NC(=O)C(=O)O)cc12` [Example 09, N-(3,5-dichloropyrid-4-yl)-4-methoxy-8-hydroxycarbonylcarboxamido-dibenzo[b,d]furan-1-carboxamide], in that order: 1.03 nM and 138 nM.
Turning to `COc1ccc(C(=O)Nc2c(Cl)cncc2Cl)c2c1oc1ccc(NC(=O)C(=O)O)cc12` [Example 10, N-(3,5-dichloropyrid-4-yl)-4-methoxy-8-hydroxycarbonylcarboxamido-dibenzo[b,d]furan-1-carboxamide sodium salt], the IC50 on PDE4 enzyme (sodium salt) was 1.85 nM. In the experiment on PDE4 (sodium salt), the EC50 was 38.2 nM.
`COc1ccc(C(=O)Nc2c(Cl)cncc2Cl)c2c1oc1ccc(NC(=O)c3ccco3)cc12` [Example 11, N-(3,5-dichloropyrid-4-yl)-4-methoxy-8-(fur-2-yl-carboxamido)-dibenzo[b,d]furan-1-carboxamide] yielded an IC50 against PDE4 enzyme of 0.887 nM. In the experiment with PDE4, this compound registered an EC50 of 4.34 nM.
With `COc1ccc(C(=O)Nc2c(Cl)cncc2Cl)c2c1oc1ccc(NC(=O)C3CC3)cc12` [Example 12, N-(3,5-dichloropyrid-4-yl)-4-methoxy-8-(cyclopropylcarbonylamino)-dibenzo[b,d]furan-1-carboxamide], the IC50 against PDE4 enzyme is 0.557 nM. Also, the concentration for a half-maximal effect (EC50) with PDE4 is 16.2 nM.
On to `COc1ccc(C(=O)Nc2c(Cl)cncc2Cl)c2c1oc1ccc(N(C(=O)C3CC3)C(=O)C3CC3)cc12` [Example 13, N-(3,5-dichloropyrid-4-yl)-4-methoxy-8-(N,N-dicyclopropylcarbonylamino)-dibenzo[b,d]furan-1-carboxamide], for which, at PDE4 enzyme, half-maximal inhibition (IC50) required 74 nM.
On the same count and under the same terms, the result for `COc1ccc(C(=O)Nc2c(Cl)cncc2Cl)c2c1oc1ccc(NC(=O)OCC(C)C)cc12` [Example 16, N-(3,5-dichloropyrid-4-yl)-4-methoxy-8-isobutyloxycarboxamido-dibenzo[b,d]furan-1-carboxamide] reads 63.6 nM.
Consider `COc1ccc(C(=O)Nc2c(Cl)cncc2Cl)c2c1oc1ccc(NC(=O)Oc3ccccc3)cc12` [Example 17, N-(3,5-dichloropyrid-4-yl)-4-methoxy-8-phenoxycarboxamido-dibenzo[b,d]furan-1-carboxamide], for which the IC50 against PDE4 enzyme is 9.09 nM. This compound showed an EC50 in the experiment with PDE4 of 104 nM.
The corresponding values for `COc1ccc(C(=O)Nc2c(Cl)cncc2Cl)c2c1oc1ccc(NC(=O)OCC(F)(F)F)cc12` [Example 19, N-(3,5-dichloropyrid-4-yl)-4-methoxy-8-trifluoromethylmethoxycarboxamido-dibenzo[b,d]furan-1-carboxamide] are 4.79 nM and 9.01 nM.
The corresponding values for `COc1ccc(C(=O)Nc2c(Cl)cncc2Cl)c2c1oc1ccc(NC(=O)NC3CCCC3)cc12` [Example 21, N-(3,5-dichloropyrid-4-yl)-4-methoxy-8-cyclopentylaminocarboxamido-dibenzo[b,d]furan-1-carboxamide] are 1.19 nM and 23.8 nM.
Take `COc1ccc(C(=O)Nc2c(Cl)cncc2Cl)c2c1oc1ccc(NC(=O)N3CCN(C)CC3)cc12` [Example 22, N-(3,5-dichloropyrid-4-yl)-4-methoxy-8-(N-methylpiperazin-4-ylcarboxamido)-dibenzo[b,d]furan-1-carboxamide]: the concentration for half-maximal inhibition (IC50) on PDE4 enzyme turned out to be 1.28 nM. The EC50 with PDE4 turned out to be 9.34 nM.
`COc1ccc(C(=O)Nc2c(Cl)cncc2Cl)c2c1oc1ccc(NC(=O)N3CCN(C)CC3)cc12` [Example 23, N-(3,5-dichloropyrid-4-yl)-4-methoxy-8-(N-methylpiperazin-4-ylcarboxamido)-dibenzo[b,d]furan-1-carboxamide hydrochloride] displayed an IC50 on PDE4 enzyme (hydrochloride) of 3.78 nM. This compound showed an EC50 in the experiment with PDE4 (hydrochloride) of 4.14 nM.
`COc1ccc(C(=O)Nc2c(Cl)cncc2Cl)c2c1oc1ccc(NC(=O)N3CCC(O)CC3)cc12` [Example 24, N-(3,5-dichloropyrid-4-yl)-4-methoxy-8-(4-hydroxypiperidin-1-ylcarboxamido)-dibenzo[b,d]furan-1-carboxamide] came in with an IC50 against PDE4 enzyme of 3.01 nM. In the experiment with PDE4, this compound returned an EC50 of 2.94 nM.
As for `COc1ccc(C(=O)Nc2c(Cl)cncc2Cl)c2c1oc1ccc(NC(=O)N3CCOCC3)cc12` [Example 25, N-(3,5-dichloropyrid-4-yl)-4-methoxy-8-(morphol-4-ylcarboxamido)-dibenzo[b,d]furan-1-carboxamide], 5.07 nM corresponded to half-maximal inhibition against PDE4 enzyme (IC50). In the experiment with PDE4, this compound returned an EC50 of 8.9 nM.
Compound `COc1ccc(C(=O)Nc2c(Cl)cncc2Cl)c2c1oc1ccc(NC(=O)NC(C)C)cc12` [Example 26, N-(3,5-dichloropyrid-4-yl)-4-methoxy-8-isopropylamino carboxamido-dibenzo[b,d]furan-1-carboxamide] registered an IC50 on PDE4 enzyme of 15.6 nM.
`CCCCCCNC(=O)Nc1ccc2oc3c(OC)ccc(C(=O)Nc4c(Cl)cncc4Cl)c3c2c1` [Example 27, N-(3,5-dichloropyrid-4-yl)-4-methoxy-8-n-hexylamino carboxamido-dibenzo[b,d]furan-1-carboxamide] came in with an IC50 against PDE4 enzyme of 3.4 nM. In addition, the EC50 with PDE4 stood at 4.16 nM.
The corresponding values for `CCNC(=O)Nc1ccc2oc3c(OC)ccc(C(=O)Nc4c(Cl)cncc4Cl)c3c2c1` [Example 28, N-(3,5-dichloropyrid-4-yl)-4-methoxy-8-ethylamino carboxamido-dibenzo[b,d]furan-1-carboxamide] are 1.4 nM and 6.33 nM.
As for `CNC(=O)Nc1ccc2oc3c(OC)ccc(C(=O)Nc4c(Cl)cncc4Cl)c3c2c1` [Example 29, N-(3,5-dichloropyrid-4-yl)-4-methoxy-8-methylamino carboxamido-dibenzo[b,d]furan-1-carboxamide], at PDE4 enzyme, it took 2.14 nM to reach half-maximal inhibition (IC50). In the experiment on PDE4, this compound displayed an EC50 of 19.3 nM.
With `CS(=O)(=O)Nc1ccc2oc3c(OC(F)F)ccc(C(=O)Nc4c(Cl)cncc4Cl)c3c2c1` [Example 30, N-(3,5-dichloropyrid-4-yl)-4-difluoromethoxy-8-methanesulfonamido-dibenzo[b,d]furan-1-carboxamide], inhibition against PDE4 enzyme was half-maximal at 1.63 nM (IC50). The compound further returned an EC50 in the experiment on PDE4 of 3.59 nM.
For `CS(=O)(=O)Nc1ccc2oc3c(OC(F)F)ccc(C(=O)Nc4c(Cl)cncc4Cl)c3c2c1` [Example 31, N-(3,5-dichloropyrid-4-yl)-4-difluoromethoxy-8-methanesulfonamido-dibenzo[b,d]furan-1-carboxamide sodium salt], the IC50 at PDE4 enzyme (sodium salt) came out at 1.43 nM. Also, the EC50 with PDE4 (sodium salt) was 3.46 nM.
The compound `CCS(=O)(=O)Nc1ccc2oc3c(OC(F)F)ccc(C(=O)Nc4c(Cl)cncc4Cl)c3c2c1` [Example 32, N-(3,5-dichloropyrid-4-yl)-4-difluoromethoxy-8-ethanesulfonamido-dibenzo[b,d]furan-1-carboxamide] came in with an IC50 against PDE4 enzyme of 14.1 nM.
At PDE4 enzyme, `CN(C)S(=O)(=O)Nc1ccc2oc3c(OC(F)F)ccc(C(=O)Nc4c(Cl)cncc4Cl)c3c2c1` [Example 33, N-(3,5-dichloropyrid-4-yl)-4-difluoromethoxy-8-N,N-dimethylaminosulfonamido-dibenzo[b,d]furan-1-carboxamide] displayed an IC50 of 12.1 nM.
Consider `COc1ccc(C(=O)Nc2c(Cl)cncc2Cl)c2c3cc(NC(C)=O)ccc3n(C)c12` [Example 54, N-(3,5-dichloropyrid-4-yl)-1-methoxy-9-methyl-6-acetamido-9H-4-carbazolecarboxamide], for which, on PDE4 enzyme, the IC50 came to 237 nM.

In general, IC50 refers to the concentration that gives 50% inhibition. For orientation: EC50 means the concentration giving half of the maximal effect.
